{
  "source": "patent US7858637B2",
  "about": "“Administration of TLR7 ligands and prodrugs thereof for treatment of infection by hepatitis C virus” (priority 2003, dated 2010)",
  "key": {"human TLR7": {"target": "T1, human TLR7 (Homo sapiens, UniProt Q9NYK1)", "T1 sequence (Q9NYK1 27-1049)": "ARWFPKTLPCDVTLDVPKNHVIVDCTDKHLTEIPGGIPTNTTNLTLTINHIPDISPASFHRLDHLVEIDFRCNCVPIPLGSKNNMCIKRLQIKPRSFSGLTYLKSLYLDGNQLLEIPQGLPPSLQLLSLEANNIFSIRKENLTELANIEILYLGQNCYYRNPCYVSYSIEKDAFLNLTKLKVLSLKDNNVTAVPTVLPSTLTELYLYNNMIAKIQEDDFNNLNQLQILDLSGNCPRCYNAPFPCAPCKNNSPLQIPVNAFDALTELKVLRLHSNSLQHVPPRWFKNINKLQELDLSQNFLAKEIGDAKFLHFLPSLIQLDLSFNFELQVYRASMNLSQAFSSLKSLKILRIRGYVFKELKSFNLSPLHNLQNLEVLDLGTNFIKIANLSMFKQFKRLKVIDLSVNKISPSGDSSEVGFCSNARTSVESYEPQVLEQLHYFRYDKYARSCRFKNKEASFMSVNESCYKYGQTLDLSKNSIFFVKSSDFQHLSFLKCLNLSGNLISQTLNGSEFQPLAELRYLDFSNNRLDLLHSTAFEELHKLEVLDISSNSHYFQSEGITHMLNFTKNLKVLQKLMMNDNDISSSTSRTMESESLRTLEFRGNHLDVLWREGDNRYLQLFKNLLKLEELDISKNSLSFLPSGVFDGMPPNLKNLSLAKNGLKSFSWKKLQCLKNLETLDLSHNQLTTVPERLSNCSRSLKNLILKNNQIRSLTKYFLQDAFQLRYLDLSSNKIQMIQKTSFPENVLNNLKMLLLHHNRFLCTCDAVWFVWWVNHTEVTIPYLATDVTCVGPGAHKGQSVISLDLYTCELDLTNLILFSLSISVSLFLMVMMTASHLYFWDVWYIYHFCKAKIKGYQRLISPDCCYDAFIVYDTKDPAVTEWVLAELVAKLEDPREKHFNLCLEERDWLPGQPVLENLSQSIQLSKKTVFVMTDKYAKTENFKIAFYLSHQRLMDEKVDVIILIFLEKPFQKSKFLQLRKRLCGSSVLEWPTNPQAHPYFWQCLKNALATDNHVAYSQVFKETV", "test": "HEK293-hTLR7 NF-kB luciferase reporter (C23) assay", "details": "read-out: mean fold induction of luciferase activity compared to the no drug control", "description": "A stable HEK293-hTLR7 cell line was obtained from Invivogen (San Diego, Calif.), transfected with pNiFty2-Luc, an NF-kB inducible luciferase reporter plasmid (Invivogen) and (dual) stable transfectants selected. The resultant dual (hTLR7/pNiFty2-Luc) cell lines were functionally tested by response to loxoribine and isatoribine as measured by fold luciferase induction relative to a no drug control. […] See, e.g., Hemmi H. et al., Nat.\nFor a typical C23 assay, cells are seeded at 6×10^4 cells/well in 96 well plates and 4-24 hours later are treated with various concentrations of compound. After 2-48 hours exposure the cell monolayers are lyzed with passive lysis buffer (Promega) and the firefly luciferase assay carried out using the luciferase assay reagent (Promega) as specified by the manufacturer. Relative luciferase activities are expressed as folds of induction compared to the no drug control. A two-fold induction over background is considered a bona fide TLR7 agonist, dependent on this being a statistically significant increase.\nIn Table 1, isatoribine, was added to C23 cells for forty-eight hours, and the cells were then harvested and assayed for luciferase activity. Each time-point was assayed in triplicate.\nEach time-point was assayed in triplicate."}, "HCV replicon": {"test_system": "HCV replicon", "test": "HCV replicon-based viral bioassay with supernatants of compound-treated PBMC", "format": "cell-based, hepatitis C virus", "description": "A quantitative assay was developed which is based on measuring the activity of the luciferase reporter gene that was integrated into an HCV replicon. By using this system, interferons from TLR7 agonist-treated PBMCs were measured and their inhibitory activity was assessed using the luciferase reporter replicon.\nHuman PBMCs isolated from a healthy donor were placed in replicate cell culture wells (5×10^6 cells per well). The PBMCs are incubated in the absence of test compounds at 37° C. in a humidified atmosphere containing 5% CO2 for 24 hours to allow stabilization to the culture conditions, and then the TLR7 ligand or a drug free control is added to replicate wells containing PBMCs from the same donor. The concentrations of TLR7 ligand may be varied to suit the particular experiment, and the PBMC cultures are then incubated at 37° C. in a humidified atmosphere containing 5% CO2 for eight hours. Samples of cell culture supernatant are taken at the eight hour time point (or twenty four hour time point in case of Loxoribine and its prodrugs) from TLR7 ligand treated and control wells and are assayed for interferon-alpha production by ELISA. Supernatants from compound-treated cells and a no-drug control were diluted at 1:10, 1:100, and 1:1000 in RPMI media and applied to a 96-well plate of Huh7 hepatocyte cells containing the luciferase reporter replicon. Cells were incubated for 48 hours at 37° C. in a tissue culture incubator.\nAfter the incubation period, the 96-well plates are washed 2× with PBS and are lysed with passive lysis buffer (Promega). Plates are shaken at room temperature for 20 minutes and standard luciferase assay reagent (Promega) is added to each well by injection and the plate is read on an Lmax luminometer (Molecular Devices).\nA supernatant collected from PBMC cells non-exposed to the compound and diluted as specified in the first column was used as a control (“Blank supernatant”). The PBMC cells were isolated from a single blood donor as specified."}, "[1]": {"test_system": "human peripheral blood mononuclear cells (PBMC)", "test": "PBMC assay of interferon alpha release (masking)", "format": "cell-based", "details": "Homo sapiens, PBMC, read-out: Amount of INFa relative to that induced by isatoribine at 100 μM", "description": "A typical experiment would use human peripheral blood mononuclear cells (PBMC) isolated from a healthy donor and placed in replicate cell culture wells; typically, 2×10^6 to 5×10^6 cells are placed in each well. The PBMC are incubated in the absence of test compounds at 37° C. in a humidified atmosphere containing 5% CO2 for 24 hours to allow stabilization to the culture conditions, and then 100 micromolar isatoribine, the TLR7 ligand and a corresponding TLR7 ligand prodrug are added to separate wells containing PBMC from the same donor; untreated controls are included. The concentrations of TLR7 ligand and TLR7 ligand prodrug may be varied to suit the particular experiment, and the PBMC cultures are then incubated at 37° C. in a humidified atmosphere containing 5% CO2 for a period of time ranging from two hours to 48 hours. Samples of cell culture supernate media are taken during the incubation. These are assayed for cytokine production by ELISA. Additionally the amount of TLR7 ligand and TLR7 ligand prodrug remaining at the end of the incubation may be assayed by LC-MS. Cytokine production is calculated relative to production in the isatoribine control, following subtraction of the cytokine production in untreated controls.\nThus, if the TLR7 ligand generates more interferon alpha (a conveniently measured cytokine) than does the corresponding TLR7 ligand prodrug after a similar duration of exposure and concentration, the TLR7 ligand prodrug may be deemed a “masked” TLR7 ligand prodrug."}, "HCV": {"test_system": "HCV", "details": "treatment of HCV, Pockros et al., Gastroenterology 2003; cited from earlier work"}},
  "note": "Where a name gives a salt, the structure may show the parent alone. Read-outs that look alike come from different tables or passages of the source.",
  "data": [
    {"smiles": "CC(=O)OC[C@H]1O[C@@H](n2c(=O)sc3c(=O)[nH]c(N)nc32)[C@H](OC(C)=O)[C@@H]1OC(C)=O", "values": [
      {"measurement": "melting point", "value": "198 to 199", "unit": "°C"}
    ]},
    {"smiles": "Nc1ncc2sc(=O)n([C@@H]3O[C@H](CO)[C@@H](O)[C@H]3O)c2n1", "values": [
      {"measurement": "melting point", "value": "220 °C (dec.)"}
    ]},
    {"smiles": "CC(C)[C@H](N)C(=O)OC[C@H]1O[C@@H](n2c(=O)sc3c(=O)[nH]c(N)nc32)[C@H](O)[C@@H]1O", "note": "(as salt: hydrochloride) [Compound 24, 5-Amino-3-(5′-O-L-valinyl-β-D-ribofuranosyl)thiazolo[4,5-d]pyrimidine-2,7-dione Dihydrochloride]", "values": [
      {"measurement": "melting point", "value": "166 to 168 °C (dec.)"}
    ]},
    {"smiles": "COCCOc1nc(N)c2nc(O)n(Cc3ccccc3)c2n1", "note": "[Compound 29, 6-Amino-9-benzyl-2-(2-methoxy-ethoxy)-9H-purin-8-ol]", "values": [
      {"measurement": "fold induction at 1 µM", "setting": "human TLR7", "value": 20.8},
      {"measurement": "fold induction at 3.2 µM", "setting": "human TLR7", "value": 37.3},
      {"measurement": "fold induction at 10 µM", "setting": "human TLR7", "value": 47.5},
      {"measurement": "fold induction at 32 µM", "setting": "human TLR7", "value": 48.4},
      {"measurement": "HCV replicon inhibition", "setting": "HCV replicon; Table 8 No. 1, PBMC exposed 8 hours to 0.1 μM, a TFA salt, donor FL76418, supernatant dilution 1:10", "value": 100, "unit": "%"},
      {"measurement": "HCV replicon inhibition", "setting": "HCV replicon; Table 8 No. 1, PBMC exposed 8 hours to 0.1 μM, a TFA salt, donor FL76418, supernatant dilution 1:100", "value": 73, "unit": "%"},
      {"measurement": "HCV replicon inhibition", "setting": "HCV replicon; Table 8 No. 1, PBMC exposed 8 hours to 0.1 μM, a TFA salt, donor FL76418, supernatant dilution 1:1000", "value": 0, "unit": "%"},
      {"measurement": "HCV replicon inhibition", "setting": "HCV replicon; Table 8 No. 2, PBMC exposed 8 hours to 0.1 μM, a TFA salt, donor FL76418, supernatant dilution 1:10", "value": 100, "unit": "%"},
      {"measurement": "HCV replicon inhibition", "setting": "HCV replicon; Table 8 No. 2, PBMC exposed 8 hours to 0.1 μM, a TFA salt, donor FL76418, supernatant dilution 1:100", "value": 64, "unit": "%"},
      {"measurement": "HCV replicon inhibition", "setting": "HCV replicon; Table 8 No. 2, PBMC exposed 8 hours to 0.1 μM, a TFA salt, donor FL76418, supernatant dilution 1:1000", "value": 9, "unit": "%"},
      {"measurement": "Emax at 0.1 µM", "setting": "[1]; Table 14, 0.1 μM, 24 hours exposure", "value": 128, "unit": "%"}
    ]},
    {"smiles": "CCOCc1nc2c(N)nc3ccccc3c2n1CC(C)(C)O", "note": "[Compound 38, 1-(4-amino-2-ethoxymethyl-imidazo[4,5-c]quinolin-1-yl)-2-methyl-propan-2-ol]", "values": [
      {"measurement": "HCV replicon inhibition", "setting": "HCV replicon; Table 6 No. 1, PBMC exposed 8 hours to 10 μM, donor FL75287, supernatant dilution 1:10", "value": 100, "unit": "%"},
      {"measurement": "HCV replicon inhibition", "setting": "HCV replicon; Table 6 No. 1, PBMC exposed 8 hours to 10 μM, donor FL75287, supernatant dilution 1:100", "value": 98, "unit": "%"},
      {"measurement": "HCV replicon inhibition", "setting": "HCV replicon; Table 6 No. 1, PBMC exposed 8 hours to 10 μM, donor FL75287, supernatant dilution 1:1000", "value": 21, "unit": "%"},
      {"measurement": "HCV replicon inhibition", "setting": "HCV replicon; Table 6 No. 2, PBMC exposed 8 hours to 10 μM, donor FL75287, supernatant dilution 1:10", "value": 100, "unit": "%"},
      {"measurement": "HCV replicon inhibition", "setting": "HCV replicon; Table 6 No. 2, PBMC exposed 8 hours to 10 μM, donor FL75287, supernatant dilution 1:100", "value": 88, "unit": "%"},
      {"measurement": "HCV replicon inhibition", "setting": "HCV replicon; Table 6 No. 2, PBMC exposed 8 hours to 10 μM, donor FL75287, supernatant dilution 1:1000", "value": 6, "unit": "%"},
      {"measurement": "Emax at 100 µM", "setting": "[1]; 24 h", "value": 9, "unit": "%"},
      {"measurement": "anti-HCV effect at tolerated oral doses", "setting": "HCV", "value": "failed to show anti-HCV effect"}
    ]},
    {"smiles": "CC(=O)O[C@@H]1[C@H](OC(C)=O)[C@@H](CO)O[C@H]1n1c(=O)sc2cnc(N)nc21", "note": "[Compound 93, 5-Amino-3-(2′,3′-di-O-acetyl-β-D-ribofuranosyl)-3H-thiazolo[4,5-d]pyrimidin-2-one]", "values": [
      {"measurement": "Emax at 100 µM", "setting": "[1]; Table 9, 100 μM, 24 hours exposure, same blood donor", "value": 0, "unit": "%"},
      {"measurement": "melting point", "value": "109 to 111", "unit": "°C"}
    ]}
  ]
}
